From patent US20230312528A1, “2-OXO-IMIDAZOLIDINE-4-CARBOXAMIDES AS NAV1.8 INHIBITORS” (Merck Sharp & Dohme LLC, priority 2020, published 2023)

Target: human NaV1.8 (Homo sapiens (Human), UniProt Q9Y5Y9)
Test: Nav1.8 Qube automated patch-clamp assay
Format: cell-based
Conditions: human NaV1.8 stably expressed in HEK 293 cells; automated 384-well patch-clamp; resting or inactivated state not specified
Procedure: Compounds were tested on human NaV1.8 and NaV1.5 channels stably expressed in human embryo kidney (HEK) 293 cells. Sodium current measurements on Qube® were conducted as follows: automated 384-well patch-clamp assays on the Qube® platform (Sophion Biosciences) were used to measure the inhibition of sodium flow through human NaV1.8 and NaV1.5 channels. Whole-cell voltage-clamp recordings were performed in QChips® (Sophion Biosciences) at room temperature. NaV1.8 current measurements on Qube® were obtained as follows: NaV1.8 currents were elicited with a 10 second 1 Hertz (Hz) pulse train from a holding potential of −90 millivolts (mV), delivered to the cells once per minute in the control condition (DMSO only) and after compound addition. The 1 hertz pulse train stimulation consisted of ten test pulses to 10 millivolt (mV) for 20 milliseconds (ms), each of which was followed by a 980 millisecond repolarization to −67 millivolts. At the end of the 10 second pulse train stimulation, a 5 second hyperpolarization step to −100 millivolt (mV) was used to recover NaV1.8 from fast inactivation. The peak currents elicited by the 1st and 10th test pulses were used to determine IC50 values for resting inhibition and inactivated state inhibition. NaV1.5 current measurements on Qube® were obtained as follows: NaV1.5 currents were elicited with a 20 second 3 Hertz pulse train in the control condition (DMSO only) and after compound addition. The pulse train consisted of sixty 20 millisecond test pulses to 0 millivolt from a holding potential of −80 millivolt (mV). The average peak currents elicited by the last 3 test pulses were used to determine IC50 values for NaV1.5 inhibition.
The following buffers were used for the Qube® recordings: External buffer for NaV1.8 Qube® recording: 150 NaCl, 2 CaCl2, 5 KCl, 1 Mg Cl2, 10 HEPES, 12 Dextrose; External buffer for Qube® NaV1.5 recording: 120 N-Methyl-D-Glucamine, 40 NaCl, 1 KCl, 2.7 CaCl2, 5 HEPES, 0.5 MgCl2; and Internal buffer for Qube® recording: 120 CsF, 30 CsCl, 10 EGTA, 5 HEPES, 5 NaF, 2 MgCl2.
For all Qube® experiments offline analysis was used to determine percent inhibition as a function of drug concentration. IC50 values were determined by fitting to the Hill equation.

Chain of human NaV1.8 (Q9Y5Y9 whole entry): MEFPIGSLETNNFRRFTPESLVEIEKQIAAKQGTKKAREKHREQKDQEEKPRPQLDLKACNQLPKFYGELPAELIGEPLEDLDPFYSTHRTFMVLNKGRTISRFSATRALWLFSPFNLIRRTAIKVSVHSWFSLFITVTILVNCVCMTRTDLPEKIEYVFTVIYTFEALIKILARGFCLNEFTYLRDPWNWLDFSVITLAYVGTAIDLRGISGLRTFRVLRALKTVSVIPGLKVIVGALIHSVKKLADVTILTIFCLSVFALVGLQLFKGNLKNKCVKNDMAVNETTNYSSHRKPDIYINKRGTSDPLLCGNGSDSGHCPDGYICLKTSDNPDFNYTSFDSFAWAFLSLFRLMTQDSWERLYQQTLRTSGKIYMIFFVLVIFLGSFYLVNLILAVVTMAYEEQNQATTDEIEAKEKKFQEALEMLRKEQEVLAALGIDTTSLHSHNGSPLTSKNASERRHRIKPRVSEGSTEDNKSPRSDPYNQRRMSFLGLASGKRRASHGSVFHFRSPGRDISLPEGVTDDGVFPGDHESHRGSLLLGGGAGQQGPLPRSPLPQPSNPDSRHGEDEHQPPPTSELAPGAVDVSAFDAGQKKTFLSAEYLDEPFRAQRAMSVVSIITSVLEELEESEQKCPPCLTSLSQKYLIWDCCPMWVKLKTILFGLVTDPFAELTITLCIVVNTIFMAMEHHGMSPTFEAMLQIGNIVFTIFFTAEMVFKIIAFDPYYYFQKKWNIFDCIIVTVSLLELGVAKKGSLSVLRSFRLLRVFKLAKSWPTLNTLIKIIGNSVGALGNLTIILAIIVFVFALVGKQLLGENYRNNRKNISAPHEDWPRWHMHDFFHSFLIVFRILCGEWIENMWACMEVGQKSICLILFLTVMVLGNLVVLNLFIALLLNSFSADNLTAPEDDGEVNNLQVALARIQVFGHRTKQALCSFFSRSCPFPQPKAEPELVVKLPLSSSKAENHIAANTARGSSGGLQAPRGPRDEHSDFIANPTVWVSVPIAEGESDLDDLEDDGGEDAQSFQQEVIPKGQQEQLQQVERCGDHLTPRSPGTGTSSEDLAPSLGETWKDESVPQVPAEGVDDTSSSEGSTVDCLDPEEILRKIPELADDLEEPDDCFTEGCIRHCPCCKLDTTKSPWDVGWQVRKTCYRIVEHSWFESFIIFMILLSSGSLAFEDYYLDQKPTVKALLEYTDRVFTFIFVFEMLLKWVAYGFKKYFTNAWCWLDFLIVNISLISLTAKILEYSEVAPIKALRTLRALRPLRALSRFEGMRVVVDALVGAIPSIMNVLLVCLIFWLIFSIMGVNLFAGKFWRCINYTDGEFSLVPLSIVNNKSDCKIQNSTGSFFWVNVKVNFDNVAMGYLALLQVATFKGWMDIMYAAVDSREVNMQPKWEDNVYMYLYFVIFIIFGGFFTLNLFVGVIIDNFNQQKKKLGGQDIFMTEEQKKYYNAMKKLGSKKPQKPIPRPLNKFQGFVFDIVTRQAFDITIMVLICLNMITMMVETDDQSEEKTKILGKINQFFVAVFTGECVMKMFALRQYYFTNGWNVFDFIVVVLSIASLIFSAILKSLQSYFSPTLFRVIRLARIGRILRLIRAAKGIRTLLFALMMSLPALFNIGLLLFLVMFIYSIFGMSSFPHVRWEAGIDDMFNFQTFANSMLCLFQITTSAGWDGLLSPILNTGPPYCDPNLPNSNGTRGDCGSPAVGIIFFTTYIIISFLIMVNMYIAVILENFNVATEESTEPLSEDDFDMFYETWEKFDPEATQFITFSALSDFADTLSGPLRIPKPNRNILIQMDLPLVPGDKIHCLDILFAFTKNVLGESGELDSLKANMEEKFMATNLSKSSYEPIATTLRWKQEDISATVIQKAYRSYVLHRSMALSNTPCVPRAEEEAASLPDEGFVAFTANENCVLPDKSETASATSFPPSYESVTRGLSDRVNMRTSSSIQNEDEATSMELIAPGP

IC50 [nM] | SMILES
13 | O=C1NC[C@@H](C(=O)NC(c2ccc(C(F)F)nc2)c2ccc(F)c(Cl)c2F)N1 (single isomer, unassigned) [Example 43, (S)-N-((R or S)-(3-chloro-2,4-difluorophenyl)(6-(difluoromethyl)pyridin-3-yl)methyl)-2-oxoimidazolidine-4-carboxamide]
62 | O=C1NC[C@@H](C(=O)NC(c2ccc(Cl)cc2)c2cc(C(F)(F)F)c(F)cn2)N1 (single isomer, unassigned) [Example 59B, (S)-N-((R or S)-(4-chlorophenyl)(5-fluoro-4-(trifluoromethyl)pyridin-2-yl)methyl)-2-oxo-imidazolidine-4-carboxamide]
1.3 | O=C1NC[C@@H](C(=O)NC(c2ccc(OCC(F)(F)F)nc2)c2ccc(F)c(Cl)c2F)N1 (single isomer, unassigned) [Example 33A, (S)—N—((R or S)-(3-chloro-2,4-difluorophenyl)(6-(2,2,2-trifluoroethoxy)pyridin-3-yl)methyl)-2-oxoimidazolidine-4-carboxamide]
9 | O=C1NC[C@@H](C(=O)NC(c2ccc(F)c(Cl)c2)C2Cc3c(Cl)cccc32)N1 (single isomer, unassigned) [Example 70B, (S)-N-((R or S)-(3-chloro-4-fluoro-phenyl)((R or S)-2-chlorobicyclo[4.2.0]-octa-1(6),2,4-trien-7-yl)methyl)-2-oxoimidazolidine-4-carboxamide]
3.8 | N#Cc1ccc(C(NC(=O)[C@@H]2CNC(=O)N2)c2ccc(Cl)c(C(F)(F)F)c2)cc1 (single isomer, unassigned) [Example 60B, (S)-N-((R or S)-(4-chloro-3-(trifluoromethyl)-phenyl)(4-cyanophenyl)-methyl)-2-oxo-imidazolidine-4-carboxamide]
110 | O=C1NC[C@@H](C(=O)NC(COC2CCC(F)(F)CC2)c2ccc(F)c(Cl)c2)N1 (single isomer, unassigned) [Example 29A, (4S)-N-{1-((R or S)-3-chloro-4-fluorophenyl)-2-[(4,4-difluoro-cyclohexyl)oxy]ethyl}-2-oxoimidazolidine-4-carboxamide]
16200 | CC(N1CC(C)(C(NC(=O)[C@@H]2CNC(=O)N2)c2ccc(F)c(Cl)c2F)C1)C(F)(F)F (single isomer, unassigned) [Example 65A, (S)—N—((R or S)-(3-chloro-2,4-difluorophenyl)(3-methyl-1-((R or S)-1,1,1-trifluoropropan-2-yl)azetidin-3-yl)methyl)-2-oxoimidazolidine-4-carboxamide]
190 | O=C1NC[C@@H](C(=O)NC(c2ccc(F)c(Cl)c2F)C2COC(C(F)(F)F)C2)N1 (single isomer, unassigned) [Example 79B, (S)-N-((R or S)-(3-chloro-2,4-difluoro-phenyl)((cis or trans)-5-(trifluoromethyl)tetrahydrofuran-3-yl)methyl)-2-oxoimidazolidine-4-carboxamide]
0.2 | O=C1NC[C@@H](C(=O)NC(c2ccc(F)c(Cl)c2)c2cc3cc(Cl)ccc3o2)N1 (single isomer, unassigned) [Example 73B, (S)-N-((R or S)-(3-chloro-4-fluorophenyl)(5-chlorobenzofuran-2-yl)methyl)-2-oxoimidazolidine-4-carboxamide]
302 | CC(N1CC(C)(C(NC(=O)[C@@H]2CNC(=O)N2)c2ccc(F)c(Cl)c2F)C1)C(F)(F)F (single isomer, unassigned) [Example 65B, (S)—N—((R or S)-(3-chloro-2,4-difluorophenyl)(3-methyl-1-((R or S)-1,1,1-trifluoropropan-2-yl)azetidin-3-yl)methyl)-2-oxoimidazolidine-4-carboxamide]
44 | O=C1NC[C@@H](C(=O)NC(c2ccc(OC(F)(F)F)cc2)c2ccc(F)c(C(F)(F)F)n2)N1 (single isomer, unassigned) [Example 7B, (S)—N—((R or S)-(5-fluoro-6-(trifluoromethyl)pyridin-2-yl)(4-(trifluoromethoxy)phenyl)methyl)-2-oxo-imidazolidine-4-carboxamide]
3.8 | O=C1NC[C@@H](C(=O)NC(c2ccc(F)c(Cl)c2F)[C@H]2C[C@H](C(F)(F)F)C2)N1 (single isomer, unassigned) [Example 34A, (S)—N—((R or S)-(3-chloro-2,4-difluorophenyl)(trans-3-(trifluoromethyl)cyclobutyl)methyl)-2-oxoimidazolidine-4-carboxamide]
16 | O=C1NC[C@@H](C(=O)NC(c2ccc(F)c(C(F)F)n2)c2ccc(F)c(Cl)c2F)N1 (single isomer, unassigned) [Example 63B, (S)-N-((R or S)-(3-chloro-2,4-difluorophenyl)(6-(difluoromethyl)-5-fluoropyridin-2-yl)methyl)-2-oxoimidazolidine-4-carboxamide]
28 | O=C1NC[C@@H](C(=O)NC(c2ccc(Cl)cc2)c2ncc(Cl)c(C(F)(F)F)n2)N1 (stereo partly drawn) [Example 6, (S)—N-((5-chloro-4-(trifluoromethyl)pyrimidin-2-yl)(4-chlorophenyl)methyl)-2-oxoimidazolidine-4-carboxamide]
633 | O=C1NC[C@@H](C(=O)NC(c2ccc(F)c(Cl)c2)c2ccn(CC(F)(F)F)n2)N1 (single isomer, unassigned) [Example 28A, (4S)-N-{(R or S)-(3-chloro-4-fluorophenyl)[1-(2,2,2-trifluoroethyl)-1H-pyrazol-3-yl]methyl}-2-oxoimidazolidine-4-carboxamide]
31 | C[C@@H]1C[C@H](C(NC(=O)[C@@H]2CNC(=O)N2)c2ccc(F)c(Cl)c2)C[C@H](C)N1CC(F)(F)F (single isomer, unassigned) [Example 15A, (S)-N-((R or S)-(3-chloro-4-fluoro-phenyl)(cis-2,6-dimethyl-1-(2,2,2-trifluoroethyl)piperidin-4-yl)methyl)-2-oxoimidazolidine-4-carboxamide]
3.1 | N#Cc1ccc(C(NC(=O)[C@@H]2CNC(=O)N2)c2ccc(Cl)c(C(F)(F)F)c2)cc1 (single isomer, unassigned) [Example 60A, (S)-N-((R or S)-(4-chloro-3-(trifluoromethyl)-phenyl)(4-cyanophenyl)-methyl)-2-oxo-imidazolidine-4-carboxamide]
2.9 | O=C1NC[C@@H](C(=O)NC(c2ccc(F)c(Cl)c2)c2nc3ccccc3s2)N1 (single isomer, unassigned) [Example 87, (S)-N-((R or S)-benzo[d]thiazol-2-yl(3-chloro-4-fluoro-phenyl)methyl)-2-oxoimidazolidine-4-carboxamide]
6.2 | O=C1NC[C@@H](C(=O)NC(c2ccc(F)c(Cl)c2)c2cc(C(F)(F)F)[nH]n2)N1 (single isomer, unassigned) [Example 4B, (S)—N—((R or S)-(3-chloro-4-fluorophenyl)(5-(trifluoromethyl)-1H-pyrazol-3-yl)methyl)-2-oxoimidazolidine-4-carboxamide]
4070 | CN1CCC(C(NC(=O)[C@@H]2CNC(=O)N2)c2ccc(F)c(Cl)c2F)CC1C(F)(F)F (single isomer, unassigned) [Example 78A, (S)-N-((R or S)-(3-chloro-2,4-difluoro-phenyl)((cis or trans)-1-methyl-2-(trifluoro-methyl)piperidin-4-yl)methyl)-2-oxoimidazolidine-4-carboxamide]
413 | O=C1NC[C@@H](C(=O)NC(CC2CCCOC2)c2ccc(F)c(Cl)c2F)N1 (single isomer, unassigned) [Example 26A, (S)-N-((R or S)-1-(3-chloro-2,4-difluorophenyl)-2-((R or S)-tetrahydro-2H-pyran-3-yl)ethyl)-2-oxoimidazolidine-4-carboxamide]
2010 | O=C1NC[C@@H](C(=O)NC(c2ccc(F)c(Cl)c2F)C2CCCCN2CC(F)(F)F)N1 (single isomer, unassigned) [Example 58A, (S)-N-((R or S)-(3-chloro-2,4-difluorophenyl) ((R or S)-1-(2,2,2-trifluoroethyl)piperidin-2-yl)methyl)-2-oxoimidazolidine-4-carboxamide]
116 | O=C1NC[C@@H](C(=O)NC(c2ccc(C(F)(F)F)nc2)c2csc(C(F)(F)F)n2)N1 (mixture of isomers) [Example 19, (S)-2-oxo-N—((R and S)-(6-(trifluoromethyl)pyridin-3-yl)(2-(trifluoromethyl)thiazol-4-yl)methyl)imidazolidine-4-carboxamide]
